From patent publication US7265097B2, “Methods of drug delivery using sulphated chitinous polymers” (Chitogenics, Inc., priority 2002, dated 2007)
Each block holds one substance with its values, some of them ahead of it.

What was measured:
[1] = set-up: species or system rats; details: rat, in vivo
Protocol: The effect of S-NOCCs (N-sulphated N,O-carboxymethyl chitosans) as primary carriers in vivo was tested using rats. Male Wistar rats (SPF status, approximately 250 g) were obtained from Charles River (NL). The animals were fasted for 16 hours before administration with free access to water. The animals were anesthetized with Hypnorm (fentanyl citrate) and Dormicum (midazolam). The body temperature of the rats was kept at 36-37° C. and was monitored throughout the experiment.
Reviparin LMWH (Reviparin, Knoll, 108 Anti-XaU/mg) solution was prepared in physiological saline at 625 anti Xa U/ml.
S-NOCC was tested at two viscosities 40 and 60 cps (S-NOCC40 and S-NOCC60), representing a lower and higher molecular weight chitinous polymer respectively. The S-NOCCs were dissolved at 3% (w/v) in the reviparin solution to form a viscous gel.
In order to administer the LMWH formulations, a thin Teflon tube (˜1 mm i.d.) was used for the control (no polymer). In order to administer the S-NOCC formulations, a polypropylene tube with i.d. ˜3 mm was used to facilitate the viscous gels for their administration. Both tubes were connected to a syringe.
The abdomen of the animals was opened by an incision and the stomach was moved towards the incision point. A small incision at the stomach was made to allow each tube to be guided via the pylorus to the beginning of the duodenum (first 2-3 cm.). Formulation were administered slowly over 5 min and at +/− 2 ml normalized for the body weight of each animal to assure administration of 5000 Anti-Xa U/kg.
Blood samples, ˜225 μl, were collected from the tail vein capillaries (after incision) in Eppendorf vials containing 25 μl sodium citrate 3.8%. The samples were centrifuged at 13000 rpm for 20 min.
Analysis of samples was performed using the Chromostrate heparin Anti-Xa assay (Organon Teknika, NL). […] The release of pNA was measured by an end-point method at 405 nm in an EL808 ultra microplate reader (Biotek Instruments Inc.). […]

Caco-2 cells = experiment: TEER of Caco-2 cells treated with sulphated chitinous polymers; type: cell-based
Protocol: The Caco-2 intestinal epithelial cells used in this example form apically tight junctions that seal the paracellular pathways. Disruption of the tight junctions' barrier leads to increased paracellular permeability of hydrophilic drugs that are poorly absorbed across the intestine. The integrity of the tight junctions can be determined by measuring decreases in the transepithelial electrical resistance (TEER) when the tight junctions are opened.
Caco-2 cell cultures were seeded initially from cryovials (stored in liquid nitrogen) to flasks and treated with trypsin. After trypsin treatment, cells were seeded on the Costar Transwell filters (24-well plates, Costar Europe, Badhoevedorp, The Netherlands) at a seeding density of 10^4 cells/cm^2. Dulbecco's Modified Eagle's Medium (DMEM, Sigma, Bornem; Belgium; pH=7.4), supplemented with 1% nonessential amino acids, 10%, fetal calf serum (Hyclone, Greiner, The Netherlands), benzyl-penicillin G (160 U/ml) and streptomycin sulfate (100 μg/ml) (Sigma) was used as culture medium, and was added to both the donor and the acceptor compartment. […]
S-OCC(N-sulphated O-carboxymethyl chitosan), S-NOCC(N-sulphated N,O-carboxymethyl chitosan), and S-SAN (N-sulphated chitosan) were applied on the Caco-2 cell cultures and TEER was measured for 4 hours. […] The TEER was also recorded at 24 hrs after application to investigate the viability of the monolayers.

absorption of the LMWH (plasma anti-Xa level, relative to antithrombotic level) [1]: ≥ 0.2 Anti-Xa U/ml
time over which absorption of LMWH was sustained [1]: 6 h
Substance: N-sulphated N,O-carboxymethyl chitosan [S-NOCC40]

intestinal absorption of LMWH [1]: limited
Substance: Reviparin [reference compound]

Substance: Sulphated Chitosan [S-SAN]
disruption of the tight junctions between Caco-2 epithelial cells (Caco-2 cells): able to effectively disrupt the tight junctions
